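Compound exposure: 48 hours, 5 concentrations, 96-well plates. GI50: concentration for 50% inhibition of growth.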 Calls of active or inactive are those of the source. No stated cut-off is given here; in the data, active = GI50 up to about 1.1 µM and inactive = higher. Where a SMILES comes first, the peptide text is derived from it. Square brackets hold non-standard residues; d marks the D form. Peptide text beside a SMILES is read from it.
Legend:
Assay in all cases: NCI-60 cell line screen, 48 h
HCC 2998 = test system: HCC 2998
HOP-62 = test system: HOP-62
UACC-62 = test system: UACC-62
MCF7 = test system: MCF7
EKVX = test system: EKVX
CCRF-CEM = test system: CCRF-CEM
OVCAR-8 = test system: OVCAR-8
SNB-75 = test system: SNB-75
MOLT-4 = test system: MOLT-4
NCI-H460 = test system: NCI-H460
HCT-15 = test system: HCT-15
DLD-1 = test system: DLD-1
OVCAR-4 = test system: OVCAR-4
NCI-H226 = test system: NCI-H226
IGROV-1 = test system: IGROV-1
786-0 = test system: 786-0
M14 = test system: M14
TK-10 = test system: TK-10

SMILES | GI50 (HCC 2998) | GI50 (HOP-62) | GI50 (UACC-62) | GI50 (MCF7) | GI50 (EKVX) | GI50 (CCRF-CEM) | GI50 (OVCAR-8) | GI50 (SNB-75) | GI50 (MOLT-4) | GI50 (NCI-H460) | GI50 (HCT-15) | GI50 (DLD-1) | GI50 (OVCAR-4) | GI50 (NCI-H226) | GI50 (IGROV-1) | GI50 (786-0) | GI50 (M14) | GI50 (TK-10)
Cc1cc(/N=N/c2ccc(/N=N/c3c(O)c(S(=O)(=O)O)cc4cc(S(=O)(=O)O)ccc34)cc2C)ccc1/N=N/c1ccc2cc(S(=O)(=O)O)cc(S(=O)(=O)O)c2c1 | > 100 µM (inactive) | > 100 µM (inactive) | > 100 µM (inactive) | > 100 µM (inactive) | > 100 µM (inactive) | > 100 µM (inactive) | > 31.6 µM (inactive) | > 100 µM (inactive) | > 100 µM (inactive) | > 100 µM (inactive) | > 100 µM | > 100 µM (inactive) | > 100 µM (inactive) | > 50.2 µM (inactive) | > 100 µM (inactive) |  |  | 
CN(C)c1cccc(OC(=O)NCCCl)c1 | > 100 µM (inactive) | > 100 µM (inactive) | > 100 µM (inactive) | > 100 µM (inactive) | > 100 µM (inactive) | 68.2 µM (inactive) | > 100 µM (inactive) | 63.8 µM (inactive) | > 100 µM (inactive) | > 100 µM (inactive) | > 100 µM | > 100 µM (inactive) | > 100 µM (inactive) | > 100 µM (inactive) | > 100 µM (inactive) |  |  | 
CCS(=O)(=O)Nc1ccc(Nc2c3ccccc3nc3ccccc23)c(OC)c1 | 1.72 µM (inactive) | 0.067 µM (active) | 0.416 µM (active) | 0.0984 µM (active) |  | 0.0485 µM (active) | 0.885 µM (active) | 0.284 µM (active) | < 0.01 µM (active) | < 0.0114 µM (active) | 0.682 µM | 2.56 µM (inactive) | 4.19 µM (inactive) | 0.331 µM (active) | 7.94 µM (inactive) |  |  | 
C[n+]1ccc2[nH]c3ccccc3c2c1 | > 100 µM (inactive) | > 52.8 µM (inactive) | > 100 µM (inactive) |  | > 100 µM (inactive) | > 100 µM (inactive) | > 100 µM (inactive) | > 100 µM (inactive) | 38.8 µM (inactive) | > 77.4 µM (inactive) | > 100 µM | > 100 µM (inactive) | > 100 µM (inactive) | 61 µM (inactive) | > 100 µM (inactive) | > 100 µM (inactive) | > 100 µM (inactive) | > 100 µM (inactive)
O=C(Nc1ccccc1-c1nn(CN2CCNCC2)c(=S)n(CN2CCNCC2)c1=O)C(F)(F)F | 19.1 µM (inactive) | 19.6 µM (inactive) | 18.3 µM (inactive) |  | 14.2 µM (inactive) | 17.1 µM (inactive) | 20.6 µM (inactive) | 22.6 µM (inactive) | 23 µM (inactive) | 20.5 µM (inactive) | 15.9 µM | 16.5 µM (inactive) | 19.5 µM (inactive) | 17.2 µM (inactive) | 22.3 µM (inactive) | 18.7 µM (inactive) | 16.9 µM (inactive) | 27.5 µM (inactive)
CC1NC(=O)CNC(=O)CNC(=O)C(Cc2ccc(O)cc2)NC(=O)C(C(C)C)NC(=O)C(C)NC1=O (configuration not stated) (cyclo(GGAAVY); configuration not given here) | > 100 µM (inactive) | > 100 µM (inactive) | > 100 µM (inactive) | > 100 µM (inactive) | > 100 µM (inactive) | > 100 µM (inactive) | > 100 µM (inactive) | > 100 µM (inactive) | > 100 µM (inactive) | > 100 µM (inactive) | > 100 µM | > 100 µM (inactive) | 10.7 µM (inactive) | > 100 µM (inactive) | > 100 µM (inactive) |  |  | 
CC(C)C[C@H](NC(=O)[C@H](CC(C)C)NC(=O)[C@@H](Cc1c[nH]c2ccccc12)NC(=O)[C@H](Cc1ccccc1)NC(=O)[C@@H](Cc1c[nH]c2ccccc12)NC(=O)[C@H](CCC(N)=O)NC(=O)[C@@H](CCC(N)=O)NC(=O)[C@@H]1CCCN1C(=O)[C@@H](CCCCN)NC(=O)[C@H]1CCCN1C(=O)[C@H](N)CCCN=C(N)N)C(N)=O (H-[dR][dP][dK]P[dQ]Q[dW]F[dW]LL-NH2) | > 100 µM (inactive) | > 100 µM (inactive) | > 100 µM (inactive) | > 100 µM (inactive) | > 100 µM (inactive) | > 100 µM (inactive) | > 100 µM (inactive) | > 100 µM (inactive) | > 27.4 µM (inactive) | 64.7 µM (inactive) | > 100 µM | > 100 µM (inactive) | > 100 µM (inactive) | > 100 µM (inactive) | > 100 µM (inactive) |  |  | 
CCOc1ccccc1NC(=O)CC1Sc2ccccc2NC1=O (configuration not stated) | > 100 µM (inactive) | 73.3 µM (inactive) | 36.2 µM (inactive) |  | 41.5 µM (inactive) | 31.8 µM (inactive) | 58.3 µM (inactive) | 31.2 µM (inactive) | 41.5 µM (inactive) | 44.1 µM (inactive) | 53 µM | 75.7 µM (inactive) | 68.9 µM (inactive) | > 100 µM (inactive) | 45.5 µM (inactive) | > 100 µM (inactive) | 45.8 µM (inactive) | > 100 µM (inactive)
COc1cccc(-n2c3nc(=O)n(C)c(=O)c-3nc3ccccc32)c1 | 3.88 µM (inactive) | 37.9 µM (inactive) | 4.06 µM (inactive) |  | 29.8 µM (inactive) | 19 µM (inactive) | 14.6 µM (inactive) | 19.6 µM (inactive) | 16.3 µM (inactive) | 5.46 µM (inactive) | 13.4 µM | 25.2 µM (inactive) | 12.3 µM (inactive) | 17.7 µM (inactive) | 18.7 µM (inactive) | 24.3 µM (inactive) | 11.7 µM (inactive) | 45.6 µM (inactive)
O=C(CCN1CCOCC1)C(=Cc1ccccc1)C(=O)CCN1CCOCC1 | 13.7 µM (inactive) | 21.2 µM (inactive) | 2.31 µM (inactive) | 3.19 µM (inactive) | 2.21 µM (inactive) | 0.796 µM (active) | 2.91 µM (inactive) | 15.5 µM (inactive) | 1.32 µM (inactive) | 12.8 µM (inactive) | 2.1 µM | 1.82 µM (inactive) | 5.28 µM (inactive) | 14.6 µM (inactive) | 6.78 µM (inactive) |  |  | 

Source: ChEMBL document CHEMBL1201862, “PubChem BioAssay data set” (2004)
